Key:
CCRF-CEM [1] = assay: Tested for cell-growth inhibition against human leukemic lymphoblast CEM cells; format: functional, cell-based
CCRF-CEM [2] = assay: Tested for cell-growth inhibition against human leukemic lymphoblast CEM/MTX cells; format: functional, cell-based
L1210 [3] = assay: Mean change in weight of mice infected with L1210 leukemia after 7 days after an intraperitoneal dose of 80 mg/kg; format: functional, Mus musculus
L1210 [4] = assay: Range for the survival of mice infected with L1210 leukemia after an intraperitoneal dose of 20 mg/kg for 9 days; Range is 13-14; format: functional, Mus musculus
L1210 [5] = assay: Range for the survival of mice infected with L1210 leukemia after an intraperitoneal dose of 40 mg/kg for 9 days; Range is 14-16; format: functional, Mus musculus
L1210 [6] = assay: Range for the survival of mice infected with L1210 leukemia after an intraperitoneal dose of 60 mg/kg for 9 days; Range is 12-19; format: functional, Mus musculus
L1210 ( R81) = assay: Tested for cell-growth inhibition against mouse leukemic L1210/R81 cells; format: functional, cell-based
L1210 [7] = assay: Increase in life span of mice infected with L1210 leukemia after an intraperitoneal dose of 20 mg/kg for 9 days; format: functional; conditions: Mus musculus, L1210, ip, 216 h
L1210 [8] = assay: Increase in life span of mice infected with L1210 leukemia after an intraperitoneal dose of 40 mg/kg for 9 days; format: functional; conditions: Mus musculus, L1210, ip, 216 h
L1210 [9] = assay: Increase in life span of mice infected with L1210 leukemia after an intraperitoneal dose of 60 mg/kg for 9 days; format: functional; conditions: Mus musculus, L1210, ip, 216 h
L1210 [10] = assay: Increase in life span of mice infected with L1210 leukemia after an intraperitoneal dose of 80 mg/kg for 9 days; format: functional; conditions: Mus musculus, L1210, ip, 216 h
L1210 [11] = assay: Mean change in weight of mice infected with L1210 leukemia after 7 days after an intraperitoneal dose of 20 mg/kg; format: functional, Mus musculus
L1210 [12] = assay: Mean change in weight of mice infected with L1210 leukemia after 7 days after an intraperitoneal dose of 40 mg/kg; format: functional, Mus musculus
L1210 [13] = assay: Mean change in weight of mice infected with L1210 leukemia after 7 days after an intraperitoneal dose of 60 mg/kg; format: functional, Mus musculus
L1210 [14] = assay: Tested for cell-growth inhibition against mouse leukemic L1210 cells; format: functional, cell-based
L1210 [15] = assay: Mean survival of mice infected with L1210 leukemia after an intraperitoneal dose of 40 mg/kg for 9 days; format: functional, Mus musculus
L1210 [16] = assay: Mean survival of mice infected with L1210 leukemia after an intraperitoneal dose of 60 mg/kg for 9 days; format: functional, Mus musculus
L1210 [17] = assay: Range for the survival of mice infected with L1210 leukemia after an intraperitoneal dose of 80 mg/kg for 9 days; Range is 12-18; format: functional, Mus musculus
L1210 [18] = assay: Mean survival of mice infected with L1210 leukemia after an intraperitoneal dose of 80 mg/kg for 9 days; format: functional, Mus musculus
L1210 [19] = assay: Mean survival of mice infected with L1210 leukemia after an intraperitoneal dose of 20 mg/kg for 9 days; format: functional, Mus musculus
[20] = target: T1, Folylpolyglutamate synthase, mitochondrial (Mus musculus) (UniProt P48760); assay: (§1) Tested for inhibition against purified Folyl-polyglutamate synthase from mouse liver; format: functional; conditions: concentration not given here
T1 sequence (whole entry): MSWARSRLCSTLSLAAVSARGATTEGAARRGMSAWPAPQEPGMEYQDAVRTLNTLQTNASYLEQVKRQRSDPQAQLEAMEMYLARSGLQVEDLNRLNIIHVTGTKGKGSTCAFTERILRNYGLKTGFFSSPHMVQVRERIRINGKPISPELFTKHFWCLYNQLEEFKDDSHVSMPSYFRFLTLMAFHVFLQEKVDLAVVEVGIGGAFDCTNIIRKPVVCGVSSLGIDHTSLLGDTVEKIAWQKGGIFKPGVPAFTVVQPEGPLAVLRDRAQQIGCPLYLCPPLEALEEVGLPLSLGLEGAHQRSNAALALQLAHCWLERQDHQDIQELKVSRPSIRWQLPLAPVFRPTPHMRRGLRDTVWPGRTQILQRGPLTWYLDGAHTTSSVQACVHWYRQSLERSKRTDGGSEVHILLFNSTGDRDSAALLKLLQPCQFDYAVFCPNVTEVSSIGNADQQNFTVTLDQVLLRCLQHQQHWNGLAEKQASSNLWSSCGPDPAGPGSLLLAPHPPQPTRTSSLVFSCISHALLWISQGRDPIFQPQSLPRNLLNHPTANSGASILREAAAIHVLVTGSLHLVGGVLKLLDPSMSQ

Dihydrofolate reductase = target: T2, Dihydrofolate reductase (Mus musculus, UniProt P00375); assay: biochemical
T2 sequence (P00375 whole entry): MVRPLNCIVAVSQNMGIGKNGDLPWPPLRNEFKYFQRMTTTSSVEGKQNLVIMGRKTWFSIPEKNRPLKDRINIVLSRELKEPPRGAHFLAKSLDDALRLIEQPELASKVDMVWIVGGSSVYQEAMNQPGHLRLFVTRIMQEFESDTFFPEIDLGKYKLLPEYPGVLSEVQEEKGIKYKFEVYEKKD
Description: Tested for inhibition against purified Dihydrofolate reductase from L1210 murine leukemia cells

[21] = target: T3, Folylpolyglutamate synthase, mitochondrial (Homo sapiens, UniProt Q05932); assay: Inhibitory constant against purified Folyl-polyglutamate synthase obtained from human
T3 sequence (Q05932 whole entry): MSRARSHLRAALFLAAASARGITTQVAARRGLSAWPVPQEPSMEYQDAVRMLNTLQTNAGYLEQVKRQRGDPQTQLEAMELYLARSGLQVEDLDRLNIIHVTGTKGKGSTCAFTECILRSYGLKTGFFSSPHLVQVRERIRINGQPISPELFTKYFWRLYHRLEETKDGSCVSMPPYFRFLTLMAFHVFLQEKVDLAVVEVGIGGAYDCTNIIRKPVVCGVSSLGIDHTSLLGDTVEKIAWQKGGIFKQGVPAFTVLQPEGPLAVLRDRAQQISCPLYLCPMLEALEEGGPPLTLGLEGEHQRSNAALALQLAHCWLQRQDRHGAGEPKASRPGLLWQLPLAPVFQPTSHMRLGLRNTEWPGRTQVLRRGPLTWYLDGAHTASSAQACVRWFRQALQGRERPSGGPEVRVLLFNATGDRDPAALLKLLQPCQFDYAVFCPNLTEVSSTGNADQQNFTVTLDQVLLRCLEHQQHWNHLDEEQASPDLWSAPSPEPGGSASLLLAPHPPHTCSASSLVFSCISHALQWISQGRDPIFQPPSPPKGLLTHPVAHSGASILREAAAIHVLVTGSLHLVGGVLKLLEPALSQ

[22] = target: T4, Folylpolyglutamate synthase, mitochondrial (Mus musculus, UniProt P48760); assay: Inhibitory constant against purified Folyl-polyglutamate synthase obtained from mouse liver
T4 sequence (P48760 whole entry): T1 sequence (whole entry)

[23] = target: T4, Folylpolyglutamate synthase, mitochondrial; assay: (§2) Inhibitory constant against purified Folyl-polyglutamate synthase from mouse liver
[24] = target: T1, Folylpolyglutamate synthase, mitochondrial (Mus musculus); assay: as §1; conditions: concentration not given here
L1210 [25] = assay: Range for the survival of mice infected with L1210 leukemia after an intraperitoneal dose of 20 mg/kg for 9 days; Range is 14-16; format: functional, Mus musculus
L1210 [26] = assay: Range for the survival of mice infected with L1210 leukemia after an intraperitoneal dose of 40 mg/kg for 9 days; Range is 15-22; format: functional, Mus musculus
L1210 [27] = assay: Range for the survival of mice infected with L1210 leukemia after an intraperitoneal dose of 60 mg/kg for 9 days; Range is 17-19; format: functional, Mus musculus
L1210 [28] = assay: Range for the survival of mice infected with L1210 leukemia after an intraperitoneal dose of 80 mg/kg for 9 days; Range is 9-16; format: functional, Mus musculus
L1210 [29] = assay: Range for the survival of mice infected with L1210 leukemia after an intraperitoneal dose of 60 mg/kg for 9 days; Range is […]; format: functional, Mus musculus
L1210 [30] = assay: Range for the survival of mice infected with L1210 leukemia after an intraperitoneal dose of 20 mg/kg for 9 days; Range is 16-19; format: functional, Mus musculus
L1210 [31] = assay: Range for the survival of mice infected with L1210 leukemia after an intraperitoneal dose of 40 mg/kg for 9 days; Range is 14-24; format: functional, Mus musculus
Mus musculus [32] = species: Mus musculus; assay: as §1; format: functional; conditions: dose or concentration not given here
Mus musculus [33] = species: Mus musculus; assay: as §1; conditions: concentration not given here
[34] = as §2; format: functional
[35] = target: T4, Folylpolyglutamate synthase, mitochondrial; assay: Inhibitory constant against purified Folyl-polyglutamate synthase obtained from mouse
L1210 [36] = assay: Range for the survival of mice infected with L1210 leukemia after an intraperitoneal dose of 20 mg/kg for 9 days; Range is 15-16; format: functional, Mus musculus
L1210 [37] = assay: Range for the survival of mice infected with L1210 leukemia after an intraperitoneal dose of 40 mg/kg for 9 days; Range is 13-23; format: functional, Mus musculus
L1210 [38] = assay: Range for the survival of mice infected with L1210 leukemia after an intraperitoneal dose of 60 mg/kg for 9 days; Range is 10-18; format: functional, Mus musculus
L1210 [39] = assay: Range for the survival of mice infected with L1210 leukemia after an intraperitoneal dose of 80 mg/kg for 9 days; Range is 9-23; format: functional, Mus musculus
L1210 [40] = assay: Range for the survival of mice infected with L1210 leukemia after an intraperitoneal dose of 20 mg/kg for 9 days; Range is 19-22; format: functional, Mus musculus
L1210 [41] = assay: Range for the survival of mice infected with L1210 leukemia after an intraperitoneal dose of 40 mg/kg for 9 days; Range is 12-25; format: functional, Mus musculus
L1210 [42] = assay: Range for the survival of mice infected with L1210 leukemia after an intraperitoneal dose of 60 mg/kg for 9 days; Range is 9-24; format: functional, Mus musculus
L1210 [43] = assay: Range for the survival of mice infected with L1210 leukemia after an intraperitoneal dose of 80 mg/kg for 9 days; Range is 9-11; format: functional, Mus musculus

Compound	IC50 (CCRF-CEM [1])	IC50 (CCRF-CEM [2])	Weight change (L1210 [3])	IC50 (L1210 ( R81))	ILS at 20 mg/kg (L1210 [7])	ILS at 40 mg/kg (L1210 [8])	ILS at 60 mg/kg (L1210 [9])	ILS at 80 mg/kg (L1210 [10])	Weight change (L1210 [11])	Weight change (L1210 [12])	Weight change (L1210 [13])	IC50 (L1210 [14])	Survival (L1210 [15])	Survival (L1210 [16])	Survival (L1210 [18])	Survival (L1210 [19])	IC50 (Dihydrofolate reductase)	inhibition (Mus musculus [33])	other results
CN(Cc1cnc2nc(N)nc(N)c2n1)c1ccc(C(=O)NC(CCCCCCCC(=O)O)C(=O)O)cc1 (stereo unspecified)	62 nM	1000 nM	3%	73000 nM	55%	66%	74%	73%	7%	6%	6%	4.2 nM	14.6 days	15.3 days	15.2 days	13.6 days	32 nM		Range (L1210 [4]): 13 days; Range (L1210 [5]): 14 days; Range (L1210 [6]): 12 days; Range (L1210 [17]): 12 days; inhibition [20]: 43%
CN(Cc1cnc2nc(N)nc(N)c2n1)c1ccc(C(=O)N[C@@H](CCCN)C(=O)O)cc1																			Ki [21]: 4000 nM; Ki [22]: 20000 nM
CN(Cc1cnc2nc(N)nc(N)c2n1)c1ccc(C(=O)NC(CCCCCCC(=O)O)C(=O)O)cc1 (stereo unspecified)	150 nM	5800 nM	-12%	68000 nM	68%	93%	105%	43%	4%	-1%	4%	1.2 nM	17 days	18 days	12.6 days	14.8 days	23 nM		Ki [23]: 320000 nM; inhibition [24]: 47%; Range (L1210 [25]): 14 days; Range (L1210 [26]): 15 days; Range (L1210 [27]): 17 days; Range (L1210 [28]): 9 days
CN(Cc1cnc2nc(N)nc(N)c2n1)c1ccc(C(=O)NC(CCCCCCCCCC(=O)O)C(=O)O)cc1 (stereo unspecified)	16 nM	10000 nM	2%	58000 nM	98%	95%	100%	73%	6%	3%	5%	7.1 nM	17.2 days	17.6 days	15.2 days	17.4 days	34 nM		Range (L1210 [29]): 15 days; Range (L1210 [30]): 16 days; Range (L1210 [31]): 14 days; Range (L1210 [17]): 12 days; inhibition (Mus musculus [32]): 53%
Nc1nc(N)c2nc(CNc3ccc(C(=O)N[C@@H](CCC(=O)O)C(=O)O)cc3)cnc2n1 [AMINOPTERIN]																	25 nM		
Nc1nc(N)c2nc(CNc3ccc(C(=O)NC(CCCCCCCCCC(=O)O)C(=O)O)cc3)cnc2n1 (stereo unspecified)				110000 nM								0.65 nM					81 nM	90%	Ki [34]: 24000 nM
NCCC[C@H](NC(=O)c1ccc(NCc2cnc3nc(N)nc(N)c3n2)cc1)C(=O)O																			Ki [21]: 300 nM; Ki [35]: 300 nM
CN(Cc1cnc2nc(N)nc(N)c2n1)c1ccc(C(=O)NC(CCCCCCCCC(=O)O)C(=O)O)cc1 (stereo unspecified)	56 nM	2200 nM	-5%	78000 nM	73%	92%	70%	73%	5%	2%	4%	3.1 nM	16.9 days	15 days	15.2 days	15.2 days	29 nM	49%	Range (L1210 [36]): 15 days; Range (L1210 [37]): 13 days; Range (L1210 [38]): 10 days; Range (L1210 [39]): 9 days
CN(Cc1cnc2nc(N)nc(N)c2n1)c1ccc(C(=O)NC(CCCCCCCCCCC(=O)O)C(=O)O)cc1 (stereo unspecified)	640 nM	10000 nM	4%	56000 nM	137%	116%	97%	14%	3%	3%	2%	26 nM	19 days	17.3 days	10 days	20.4 days	26 nM	59%	Range (L1210 [40]): 19 days; Range (L1210 [41]): 12 days; Range (L1210 [42]): 9 days; Range (L1210 [43]): 9 days
